Consider 21 compounds from ChEMBL document CHEMBL3734677, “EVALUATION OF AROMATIC 6-SUBSTITUTED THIENOPYRIMIDINES AS SCAFFOLDS AGAINST PARASITES THAT CAUSE TRYPANOSOMIASIS, LEISHMANIASIS, AND MALARIA” (Medchemcomm, 2015).

Data set [1] relates to Trypanosoma brucei. Kind of data set: Antiparasitic activity against Trypanosoma brucei after 48 hrs by cytometry. The data set is classed as functional, organism-based.
For data set [2], the system named is Trypanosoma cruzi. Kind of data set: Antiparasitic activity against Trypanosoma cruzi at 10 uM. The data set is classed as functional.
Data set [3] has as its system Leishmania major. Kind of data set: Antiparasitic activity against Leishmania major amastigotes. The data set is classed as functional, organism-based.
The subject of data set [4] is Leishmania major. Kind of data set: Antiparasitic activity against Leishmania major promastigotes. It is filed as functional, organism-based.
The subject of data set [5] is Plasmodium falciparum. The data set can be described thus: Antiparasitic activity against Plasmodium falciparum D6. It is filed as functional, organism-based.
Data set [6] concerns HepG2. Kind of data set: Cytotoxicity against human HepG2 cells by MTT assay. As to conditions: hepg2. It is filed as cell-based. For orientation: Tetrazolium assays rely on reduction of a dye to a coloured formazan, in cell work by metabolically active cells.
For data set [7], the system named is Trypanosoma cruzi. Kind of data set: Antiparasitic activity against Trypanosoma cruzi. It is filed as functional, organism-based.
Data set [8] can be described thus: Selectivity ratio, ratio of EC50 for Plasmodium falciparum W2 to EC50 for Plasmodium falciparum D6. The data set is classed as functional.
Data set [9] is described as follows: Selectivity ratio, ratio of EC50 for Plasmodium falciparum C235 to EC50 for Plasmodium falciparum D6. It is filed as functional.
Setting [10] is: Leishmania major, read-out: EC50.
The mark [11] stands for this setting: Plasmodium falciparum, D6, read-out: EC50.

On to `CC(C)(C)OCc1ccc(-c2cc3c(Nc4ccc(OCc5cccc(F)c5)c(Cl)c4)ncnc3s2)cc1`, for which the half-maximal effective concentration (EC50) was 1.6 µM in [1], 2.03 µM in [3] (setting [10]), greater than 20 µM in data set [4] (setting [10]) and 7.79 µM in data set [5] (setting [11]). Moreover, the inhibition at 10 µM in data set [2] worked out at 17%. For the same compound, the Activity result in [6] is “Non-toxic”.
Regarding `Fc1cccc(COc2ccc(Nc3ncnc4ccc(-c5ccccc5Oc5ccccc5)cc34)cc2Cl)c1`, the EC50 in data set [3] (setting [10]) was greater than 15 µM; in [4] (setting [10]), 6.86 µM; in [5] (setting [11]), 5.79 µM. Moreover, in data set [6], the Activity result is recorded as “Non-toxic”.
`Fc1cccc(COc2ccc(Nc3ncnc4sc(-c5cccc(N6CCOCC6)c5)cc34)cc2Cl)c1`: the EC50 in data set [1] was 0.4 µM; in data set [7] it was 2.2 µM; in data set [3] (setting [10]), 2.6 µM; in data set [4] (setting [10]), greater than 20 µM; in data set [5] (setting [11]), 0.52 µM. Besides, the Activity result in data set [6] is listed as “Non-toxic”.
Turning to `CC(C)(C)NS(=O)(=O)c1ccccc1-c1cc2c(Nc3ccc(OCc4cccc(F)c4)c(Cl)c3)ncnc2s1`, the half-maximal effective concentration (EC50) in data set [1] is 0.5 µM; in data set [7] it was greater than 50 µM; in data set [3] (setting [10]), greater than 15 µM; in data set [4] (setting [10]) it was greater than 20 µM; in data set [5] (setting [11]) it was greater than 15 µM. Further, the Activity entry in data set [6] was “Non-toxic”.
In the case of `CC(C)(C)OCc1ccc(-c2cc3ncnc(Nc4ccc(OCc5cccc(F)c5)c(Cl)c4)c3s2)cc1`, the EC50 in data set [1] is 0.89 µM; in [7] it was 30 µM; in [3] (setting [10]), greater than 15 µM; in [4] (setting [10]), greater than 20 µM; in data set [5] (setting [11]) it was 1.65 µM. Moreover, the Activity result in data set [6] was “Non-toxic”.
Turning to `O=C(c1cccc(-c2ccc3ncnc(Nc4ccc(OCc5cccc(F)c5)c(Cl)c4)c3c2)c1)N1CCCCC1`, the EC50 was greater than 50 µM in data set [7], greater than 15 µM in data set [3] (setting [10]), greater than 3 µM in data set [4] (setting [10]) and 0.51 µM in data set [5] (setting [11]). In addition, in data set [6], the Activity entry is given as “Non-toxic”.
Turning to `Oc1ccc(-c2cc3ncnc(Nc4ccc(OCc5cccc(F)c5)c(Cl)c4)c3s2)cc1`, the EC50 is 2.2 µM in [1]; 0.75 µM in data set [7]; 1.58 µM in data set [3] (setting [10]); greater than 20 µM in data set [4] (setting [10]); 0.44 µM in data set [5] (setting [11]). The Activity result in data set [6] is recorded as “Non-toxic”.
In the case of `Fc1cccc(COc2ccc(Nc3ncnc4cc(-c5ccc(N6CCOCC6)cc5)sc34)cc2Cl)c1`, the EC50 is 0.47 µM in data set [1], greater than 15 µM in data set [3] (setting [10]), greater than 20 µM in [4] (setting [10]) and 3.1 µM in data set [5] (setting [11]). The inhibition at 10 µM in data set [2] stood at 0%. The Activity result in data set [6] is listed as “Non-toxic”.
On to `Fc1cccc(COc2ccc(Nc3ncnc4ccc(-c5cc6ccccc6s5)cc34)cc2Cl)c1`, for which the EC50 was 6 µM in data set [1]; greater than 50 µM in data set [7]; greater than 15 µM in data set [3] (setting [10]); greater than 20 µM in data set [4] (setting [10]); 0.91 µM in data set [5] (setting [11]). Also, in data set [6], the Activity entry is “Non-toxic”.
As to `Fc1cccc(COc2ccc(Nc3ncnc4ccccc34)cc2Cl)c1`, the EC50 in data set [1] amounted to 1.3 µM; in data set [7], 2.4 µM; in [3] (setting [10]), 12.4 µM; in data set [4] (setting [10]), 1.75 µM; in [5] (setting [11]), 5.33 µM. Besides, the Activity entry in data set [6] is given as “Non-toxic”.
For the compound `CS(=O)(=O)c1cccc(-c2ccc3ncnc(Nc4ccc(OCc5cccc(F)c5)c(Cl)c4)c3c2)c1`, the EC50 in [1] is 3.2 µM; in data set [7], 5 µM; in data set [3] (setting [10]), 4.67 µM; in [4] (setting [10]) it was 3.49 µM; in data set [5] (setting [11]), 0.52 µM. Moreover, the Activity entry in data set [6] is on record as “Non-toxic”. In addition, the Ratio EC50 in data set [8] and in data set [9] was less than 3 each time.
With `CS(=O)(=O)c1cccc(-c2cc3c(Nc4ccc(OCc5cccc(F)c5)c(Cl)c4)ncnc3s2)c1`, the EC50 in data set [1] was 1.3 µM; in data set [7], 2.4 µM; in data set [3] (setting [10]), greater than 15 µM; in [4] (setting [10]) it was 11.8 µM; in [5] (setting [11]) it was 0.52 µM. Moreover, in data set [6], the Activity entry was “Non-toxic”. Also, the Ratio EC50 in [8] and in data set [9] was less than 3 each time.
On to `Fc1cccc(COc2ccc(Nc3ncnc4sc(-c5cc6ccccc6s5)cc34)cc2Cl)c1`, for which the EC50 is 2.9 µM in data set [1], greater than 3 µM in data set [3] (setting [10]), greater than 3 µM in data set [4] (setting [10]) and greater than 4 µM in data set [5] (setting [11]). Moreover, in data set [2], the inhibition at 10 µM stood at 49%. Moreover, in data set [6], the Activity result is on record as “Non-toxic”.
As to `Fc1cccc(COc2ccc(Nc3ncnc4cc(-c5ccccc5)sc34)cc2Cl)c1`, the EC50 in data set [1] was 2.8 µM; in [3] (setting [10]), greater than 15 µM; in [4] (setting [10]), 8.14 µM; in data set [5] (setting [11]), 2.97 µM. Also, 10 µM produced 0% inhibition in data set [2]. For the same compound, the Activity result in [6] is “Non-toxic”.
With `CC(C)(C)NS(=O)(=O)c1ccccc1-c1ccc2ncnc(Nc3ccc(OCc4cccc(F)c4)c(Cl)c3)c2c1`, the EC50 in [1] was 4.7 µM; in [7], 6.4 µM; in [3] it was “ND(Insoluble)”; in [4], “ND(Insoluble)”; in data set [5] it was “ND(Insoluble)”. Besides, in [6], the Activity result was “Non-toxic”.
As for `CC(C)(C)OCc1ccc(-c2ccc3ncnc(Nc4ccc(OCc5cccc(F)c5)c(Cl)c4)c3c2)cc1`, the EC50 was 0.22 µM in data set [1]; 2.2 µM in data set [7]; 4.09 µM in data set [3] (setting [10]); greater than 20 µM in data set [4] (setting [10]); 0.6 µM in data set [5] (setting [11]). Moreover, the Activity entry in data set [6] is “Non-toxic”.
Regarding `Fc1cccc(COc2ccc(Nc3ncnc4cc(-c5ccc(CN6CCOCC6)cc5)sc34)cc2Cl)c1`, the EC50 in [1] is 1.1 µM; in data set [7], greater than 50 µM; in data set [3] (setting [10]), greater than 15 µM; in [4] (setting [10]) it was 0.22 µM; in data set [5] (setting [11]), 0.027 µM. Further, the Activity result in data set [6] is reported as “Non-toxic”. In [9], the Ratio EC50 is less than 3.
Take `Oc1ccc(-c2ccc3ncnc(Nc4ccc(OCc5cccc(F)c5)c(Cl)c4)c3c2)cc1`: the concentration for a half-maximal effect (EC50) is 6.5 µM in data set [1]; greater than 50 µM in data set [7]; greater than 15 µM in data set [3] (setting [10]); greater than 20 µM in data set [4] (setting [10]); greater than 20 µM in [5] (setting [11]). Also, the Activity entry in [6] is “Non-toxic”.
As to `O=C(c1cccc(-c2cc3c(Nc4ccc(OCc5cccc(F)c5)c(Cl)c4)ncnc3s2)c1)N1CCCCC1`, the EC50 is 0.33 µM in data set [1]; greater than 50 µM in data set [7]; greater than 15 µM in data set [3] (setting [10]); greater than 20 µM in [4] (setting [10]); 2.11 µM in data set [5] (setting [11]). Also, in data set [6], the Activity entry was “Non-toxic”.
In the case of `Fc1cccc(COc2ccc(Nc3ncnc4sc(-c5ccccc5Oc5ccccc5)cc34)cc2Cl)c1`, the concentration for a half-maximal effect (EC50) was 1.2 µM in data set [1], greater than 15 µM in [3] (setting [10]), greater than 20 µM in data set [4] (setting [10]) and 10.8 µM in data set [5] (setting [11]). In data set [2], 10 µM produced 45% inhibition. The Activity result in [6] is on record as “Non-toxic”.
Take `CC(C)(C)NS(=O)(=O)c1ccccc1-c1cc2ncnc(Nc3ccc(OCc4cccc(F)c4)c(Cl)c3)c2s1`: the EC50 was 1.2 µM in data set [1]; 0.67 µM in data set [7]; 2.37 µM in data set [3] (setting [10]); greater than 20 µM in data set [4] (setting [10]); 1.07 µM in data set [5] (setting [11]). In [6], the Activity entry is “Non-toxic”.

A word on the EC50: it is the concentration that produces a half-maximal response. The inhibition is the drop in the measured response relative to a control, in per cent.
